Laboratory results: patent publication US20260042747A1, “KIT INHIBITORS, COMPOUNDS, PHARMACEUTICAL COMPOSITIONS, AND METHODS OF USE THEREOF” (Alivexis, Inc., priority 2022, published 2026)
Counter-ions that a name gives are not always drawn. Like-named read-outs stand apart in the source and are kept apart here.

Columns and labels:
[1] = target: recombinant human KIT tyrosine kinase protein (Homo sapiens (Human), UniProt P10721); experiment: KIT tyrosine kinase assay (ADP-Glo); format: biochemical
[2] = system: GIST-T1 cells; experiment: GIST cell proliferation assay; format: cell-based, human; conditions: read-out: GIST-T1 IC50
From the text: Gastrointestinal stromal tumors (GIST) are the most common adult sarcomas and the majority (85-90%) of GIST cases are caused by oncogenic mutations in the receptor tyrosine kinases (RTKs), KIT or PDGFRA, which result in constitutive activation of these receptors. Human GIST-derived cell line GIST-Ti which harboring a mutation in exon 11 of KIT was used for the measurement of inhibitory potency of the compounds.
GIST-T1 cells were purchased from Cosmo Bio (Tokyo, Japan) and cultured in 10% FBS containing DMEM. The assay was performed in 96-well plates and the IC50 of each compound was determined by CellTiter Glo Assay reagent and Victor X5 Multilabel Counter. Cells were seeded at a density of 2000 cells/90 μL/well in 96-well plates. Compound dilution, cell treatment and determination of IC50 were performed as described in the assay methods of M-07e Cell Proliferation Assay.

[3] = system: M-07e cells; experiment: SCF-dependent M-07e cell proliferation assay; format: cell-based, human; conditions: read-out: M-07e IC50
Protocol: SCF-dependent cell proliferation assay was developed to measure the inhibitory potency of the compounds in M-07e cells, which express wild-type human KIT protein. The assay was performed in 96-well plates and the IC50 of each KIT inhibitor was determined by CellTiter Glo Assay reagent and Victor X5 Multilabel Counter (Perkin Elmer).
M-07e cells were purchased from AcceGen Biotechnology. Cells were maintained with M-07e Growth medium: RPMI-1640 containing 20% FBS, 100 U/mL penicillin and 100 microgram/mL streptomycin, 10 ng/mL rhGM-CSF, 10 ng/mL rhSCF. M-07e cells were seeded at a density of 5000 cells/90 μL/well in 96-well plates. Test compounds were dissolved in 100% DMSO to make 20 mM stock solution and serially diluted 1:3 with 100% DMSO to make an 11-point dilution series with concen-trations from […] to 0.024 μM. The serially diluted compounds were then each diluted 1:50 with culture medium to obtain assay compound solutions containing 2% DMSO. Ten μL of assay compound solutions were added to the 90 μL of culture cell suspension in the 96-well plate, with a final DMSO concentration of 0.2%. The plates were then incubated in a 5% CO2 incubator at 37° C. for 3 days. To obtain Day Zero Controls for background calculation, cells were seeded at 5000 cells/100 μL in a new 96-well plate and processed on the same day. Both Day Zero controls and 3 day culture plates were then treated as follows. 100 μL of CellTiter Glo Assay reagent was added to each well and the plate was incubated at room temperature for 15 min on a shaker at 200-300 RPM. Then 100 μL of cell lysate samples were transferred to white wall 96-well plates and luminescence was measured by a plate reader. The luminescence of Day Zero Control was subtracted from the luminescence intensity of 3 day culture readings. The assay control for this experiment was cells treated with 0.2% DMSO in culture medium and wells with 100 μL of culture medium (0.2% DMSO without cells) were used as the blank for data analysis.
The IC50 value of each compound was determined by using % inhibition by nor-malizing inhibition in DMSO treated control wells to 0% using the following formula method: […]
Plot percent inhibition in proliferation of triplicates against the respective concen-trations of compound and fit the dose response curve using the sigmoidal dose response equation to generate the IC50 in GraphPad Prism 8 software.

[4] = Homo sapiens, GISTT1, 72 h, GIST-T1 cells (mutation in exon 11 of KIT), CellTiter Glo, 3 days
[5] = Homo sapiens, M-07e, 72 h, SCF-dependent M-07e cell proliferation, 3 days, CellTiter Glo

Sequence of recombinant human KIT tyrosine kinase protein (P10721 546-976): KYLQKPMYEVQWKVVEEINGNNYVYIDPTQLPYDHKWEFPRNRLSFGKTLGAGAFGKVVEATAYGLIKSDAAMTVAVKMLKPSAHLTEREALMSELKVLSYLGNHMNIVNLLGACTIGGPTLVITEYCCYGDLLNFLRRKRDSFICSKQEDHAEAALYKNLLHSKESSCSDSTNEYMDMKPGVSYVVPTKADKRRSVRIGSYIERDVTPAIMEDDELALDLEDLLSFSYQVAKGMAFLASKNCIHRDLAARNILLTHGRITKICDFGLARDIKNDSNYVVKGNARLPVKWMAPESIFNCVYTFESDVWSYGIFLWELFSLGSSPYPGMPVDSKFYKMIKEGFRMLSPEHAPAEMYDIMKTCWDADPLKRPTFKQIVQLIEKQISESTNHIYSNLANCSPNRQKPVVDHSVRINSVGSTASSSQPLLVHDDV

| SMILES | IC50 ([1]; Table 98) | IC50 ([3]; Homo sapiens, M-07e, 72 h) | other results |
| --- | --- | --- | --- |
| Cn1c(=O)[nH]c2cc(C(=O)NCc3ccc(Oc4ccccc4F)nc3)ccc21 [Compound 1, N-((6-(2-Fluorophenoxy)pyridin-3-yl)methyl)-1-methyl-2-oxo-2,3-dihydro-1H-benzimid azole-5-carboxamide] | 57 nM |  | IC50 [2, 4]: 57 nM |
| Cn1c(=O)[nH]c2cc(C(=O)NCc3ccc(Oc4cccc(F)c4)nc3)ccc21 [Example 33] | 78 nM |  | IC50 [2, 4]: 78 nM |
| CCn1c(=O)[nH]c2cc(C(=O)NCc3ccc(Oc4ccc(F)cc4)nc3)ccc21 [Example 35] | 83 nM |  | IC50 ([2]; Homo sapiens, GISTT1, 72 h): 83 nM |
| O=C(NCc1ccc(Oc2ccccc2F)nc1)c1ccc2[nH]c(=O)[nH]c2c1 [Example 32] | 29 nM |  | IC50 [2, 4]: 29 nM |
| O=C(NCc1ccc(Oc2cccc(F)c2)nc1)c1ccc2[nH]c(=O)[nH]c2c1 [Example 30] | 67 nM |  | IC50 ([2]; Homo sapiens, GISTT1, 72 h): 67 nM |
| O=C(NCc1ccc(C(F)(F)F)nc1)c1ccc2[nH]c(=O)[nH]c2c1 [Example 28] | 3600 nM |  | IC50 [2, 4]: 3600 nM |
| O=C(NCc1ccc(Oc2ccc(Cl)cc2)nc1)c1ccc2[nH]c(=O)[nH]c2c1 [Example 31] | 70 nM |  | IC50 ([2]; Homo sapiens, GISTT1, 72 h): 70 nM |
| CC(C)n1c(=O)[nH]c2cc(C(=O)NCc3ccc(Oc4ccc(F)cc4)nc3)ccc21 [Compound 2, N-((6-(4-Fluorophenoxy)pyridin-3-yl)methyl)-1-isopropyl-2-oxo-2,3-dihydro-1H-benzim idazole-5-carboxamide] | 450 nM |  | IC50 [2, 4]: 450 nM |
| CN(c1ccc(CNC(=O)c2cc3[nH]c(=O)[nH]c3cc2F)cn1)C1CCC(F)(F)C1 (stereo not drawn) [Example 140] |  |  | IC50 ([1]; Table 99): 18 nM; IC50 [3, 5]: 99 nM |
| CC(C)N(C)c1ccc(CNC(=O)c2ccc3[nH]c(=O)[nH]c3c2)cn1 [Example 129] |  |  | IC50 ([1]; Table 99): 20 nM; IC50 [3, 5]: 1020 nM |
| CN(c1ccc(CNC(=O)c2ccc3c(c2)[nH]c(=O)n3C)cn1)[C@@H]1CCC(F)(F)C1 [Example 122] |  | 14 nM | IC50 ([1]; Table 99): 32 nM |
| CN(c1ccc(CNC(=O)c2ccc3c(c2)[nH]c(=O)n3C)cn1)C1CC(OC(F)(F)F)C1 (single isomer, unassigned) [107 Isomer II, 1-Methyl-N-((6-(methyl(3-(trifluoromethoxy)cyclobutyl)amino)pyridin-3-yl)methyl)-2-oxo-2,3-dihydro-1H-benzimidazole-5-carboxamide] |  |  | IC50 ([1]; Table 99): 28 nM; IC50 ([3]; SCF-dependent M-07e cell proliferation, 3 days, CellTiter Glo): 286 nM |
| Cn1c(=O)[nH]c2cc(C(=O)NCc3ccc(Oc4ccc(Cl)cc4)nc3)ccc21 [compound 34] | 58 nM |  | IC50 ([2]; GIST-T1 cells (mutation in exon 11 of KIT), CellTiter Glo, 3 days): 58 nM |
| O=C(NCc1ccc(Oc2ccc(F)cc2)nc1)c1ccc2[nH]c(=O)[nH]c2c1 [Example 29] | 56 nM |  | IC50 [2, 4]: 56 nM |
| CN(c1ccc(CNC(=O)c2ccc3c(c2)[nH]c(=O)n3C)cn1)c1ccc(F)cc1F [Example 62] | 170 nM | 290 nM |  |
| Cn1c(=O)[nH]c2cc(C(=O)NCc3ccc(N(C)[C@H]4C[C@@H](C(F)(F)F)C4)nc3)ccc21 [Compound 12, 1-Methyl-N-((6-(methyl(cis-3-(trifluoromethyl)cyclobutyl)amino)pyridin-3-yl)methyl)-2-oxo-2,3-dihydro-1H-benzimidazole-5-carboxamide] | 36 nM |  | IC50 [3, 5]: 38 nM |
| CN(CC1CCOCC1)c1ccc(CNC(=O)c2ccc3c(c2)[nH]c(=O)n3C)cn1 [Example 72] | 84 nM | 800 nM |  |
| CN(c1ccc(CNC(=O)c2ccc3c(c2)[nH]c(=O)n3C)cn1)C12CC(C1)C2 [Example 75] | 61 nM | 500 nM |  |
| Cn1c(=O)[nH]c2cc(C(=O)NCc3cnc4c(ccn4-c4ccccc4F)c3)ccc21 [Example 100] | 53 nM | 250 nM |  |
| CC(N(C)c1ccc(CNC(=O)c2ccc3c(c2)[nH]c(=O)n3C)cn1)C(F)(F)F (stereo not drawn) [Example 86] | 15 nM | 120 nM |  |
| CN(CC1CCC(F)(F)CC1)c1ncc(CNC(=O)c2ccc3c(c2)[nH]c(=O)n3C)s1 [Example 92] | 59 nM | 1900 nM |  |
| Cn1c(=O)[nH]c2cc(C(=O)NCc3ccc(Oc4cccc(F)c4F)nc3)ccc21 [Example 36] | 50 nM | 870 nM |  |
| Cn1c(=O)[nH]c2cc(C(=O)NCc3ccc(OC4CC(C(F)(F)F)C4)nc3)ccc21 (stereo not drawn) [Compound 103, 1-Methyl-2-oxo-N-((6-(3-(trifluoromethyl)cyclobutoxy)pyridin-3-yl)methyl)-2,3-dihyd ro-1H-benzimidazole-5-carboxamide] |  |  | IC50 ([1]; Table 99): 42 nM; IC50 [3, 5]: 819 nM |
| CC(c1ccc(F)cc1)c1ccc(CNC(=O)c2ccc3c(c2)[nH]c(=O)n3C)cn1 (stereo not drawn) [Compound 15, N-((6-(1-(4-Fluorophenyl)ethyl)pyridin-3-yl)methyl)-1-methyl-2-oxo-2,3-dihydro-1H-be nzimidazole-5-carboxamide] | 67 nM |  | IC50 [3, 5]: 2200 nM |
| CN(c1ccc(CNC(=O)c2ccc3c(c2)[nH]c(=O)n3C)cn1)C1CC2(CC2)C1 [Example 109, 1-Methyl-N-((6-(methyl(spiro[2.3]hexan-5-yl)amino)pyridin-3-yl)methyl)-2-oxo-2,3-d ihydro-1H-benzimidazole-5-carboxamide formate] |  |  | IC50 ([1]; Table 99): 25 nM; IC50 [3, 5]: 12 nM |
| Cn1c(=O)[nH]c2cc(C(=O)NCc3cnc4c(ccn4-c4ccccc4)c3)ccc21 [Compound 20, 1-Methyl-2-oxo-N-((1-phenyl-1H-pyrrolo[2,3-b]pyridin-5-yl)methyl)-2,3-dihydro-1H-benzimidazole-5-carboxamide] | 38 nM |  | IC50 [3, 5]: 400 nM |
| CN(Cc1cccc(F)c1)c1ccc(CNC(=O)c2ccc3c(c2)[nH]c(=O)n3C)cn1 [Example 73] | 27 nM | 98 nM |  |
